This is an account of results in patent publication US20240108645A1, “SENESCENCE AND SENESCENCE ASSOCIATED SECRETORY PHENOTYPE” (Metro Biotech NSW Pty Ltd, priority 2013, published 2024).

For assay [1], the system named is senescence associated secretory proteins and cell cycle markers (mRNA). Nature of the assay: Quantitative RTPCR of senescence marker mRNA in epidymal adipose tissue. It counts as in vivo, C57BL6 mice. The conditions noted are these: chow or high fat feed supplemented with 500 mg/kg apigenin. How it is done: C57BL6 mice were fed chow, chow supplemented with 500 mg/kg apigenin, high fat feed or high fat feed supplemented with 500 mg/kg apigenin for 6 months. At 6 months, mRNA expression levels of senescence associated secretory proteins was determined in epidymal adipose tissue using quantitative RTPCR. At 12 months, mRNA expression levels of cell cycle markers was determined in epidymal adipose tissue using quantitative RTPCR.

Assay [2] relates to C2C12 myoblasts. As to the kind of experiment: SA-β-Gal activity in C2C12 myoblasts by flow cytometry with C12FDG. It counts as cell-based. How it is done:
To determine the ability of NAD^+ agonists to prevent or reduce senescence associated with treatment with corticoids, C2C12 myoblasts were assayed for SA-β-Gal activity following contact with vehicle, NMN, apigenin, dexamethasone, dexamethasone and NMN, and dexamethasone and apigenin. SA-β-Gal activity was determined using the fluorogenic substrate, C12FDG, by flow cytometry (protocol of Debacq-Chainiaux et al. Nature Protocols 2009). FIG. 7A: […] FIGS. 7B and 7C: […] SA-β-Gal activity was decreased with NMN and/or apigenin. All data are presented as the mean value. * p<0.05, **** p<0.0001, using two-way ANOVA multiple comparisons test.

For assay [3], the target named is T1, CD38 (Homo sapiens, UniProt P28907).
T1 sequence (P28907 1-300): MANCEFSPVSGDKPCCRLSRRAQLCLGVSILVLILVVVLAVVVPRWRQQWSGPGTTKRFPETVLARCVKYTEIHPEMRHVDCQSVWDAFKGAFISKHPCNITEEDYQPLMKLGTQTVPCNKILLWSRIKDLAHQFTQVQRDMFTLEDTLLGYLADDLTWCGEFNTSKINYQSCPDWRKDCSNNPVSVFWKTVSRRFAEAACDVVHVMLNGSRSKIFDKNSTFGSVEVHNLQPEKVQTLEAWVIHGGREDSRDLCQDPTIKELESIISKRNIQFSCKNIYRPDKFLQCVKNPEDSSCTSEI
The conditions noted are these: in vitro; Esande et al. (2013) Diabetes; cited from earlier work.

The nature of assay [4]: Body weight after whole body γ-irradiation. It counts as in vivo, female C57BL6 mice. The conditions noted are these: 500cGy whole body γ-irradiation; apigenin 500 mg/kg feed; 20 days post-irradiation. How it is done: In order to assess the affects of an NAD^+ agonist on the effects of radiation, female C57BL6 (3-4 months old) were exposed to a single dose (500cGy) of whole body γ-irradiation or no irradiation (control). Mice were then maintained on chow diet with or without the addition of the NAD^+ raising compound apigenin to diet (500 mg/kg feed). The weight of the mice was determined at various time points for 20 days post-irradiation.

The subject of assay [5] is C2C12 myoblasts. Nature of the assay: SA-β-Gal staining of C2C12 myoblasts incubated with various agents. It counts as cell-based. The method, then:
The ability of NAD^+ agonists to reduce senescence associated with various agents was tested by inclubating C2C12 myoblasts with various agents in the presence or absence of NMN or apigenin, and the cells subsequent stained as mentioned above for SA-β-Gal activity. The following agents were tested: [table]

Assay [6] concerns 3T3-L1 adipocytes. Nature of the assay: SA-β-gal chromogenic staining of dexamethasone treated 3T3-L1 adipocytes. It counts as cell-based. The conditions noted are these: 5 days; dexamethasone 1, 0.5, 0.1 or 0.01 mg/ml; 1 mM NMN, 25 mM apigenin. How it is done: To further investigate the effects of NAD^+ agonists on dexamethasone induced senescence, 3T3-L1 adipocytes were treated for 5 days with ethanol (control), or 1 mg/ml, 0.5 mg/ml, 0.1 mg/ml or 0.01 mg/ml of dexamethasone in combination with either DMSA, 1 mM NMN, 25 mM apigenin, or 1 mM NMN and 25 mM apigenin and subjected to senescence associated beta-galactosidase staining according to the chromogenic protocol of Debacq-Chainiaux F et al Nature Protocols 2009.

In assay [7] the test system is 3T3-L1 adipocytes. Nature of the assay: Intracellular lipid content (oil red o) of 3T3-L1 adipocytes treated with antiretroviral agents. The note with it: apigenin 25 μM; cells treated 24 hr with 30 μM AZT, Efavirenz, Lopinavir, Ritonavir. How it is done:
The ability of NAD^+ agonists to reduce or prevent lipodystrophy associated with anti-retroviral compounds was assessed. The ability of NMN to prevent or reduce lipodystrophy was tested by determining the lipid content of 3T3-L1 adipocytes treated with a vehicle, or the antiretroviral agent stavudine, either alone or in combination with NMN.
3T3-L1 adipocytes were treated for 24 hr with the HIV antiretroviral compound stavudine (10 nM) in the presence or absence of NMN (1 mM). Intracellular lipid content was assessed using oil red o staining, which was quantified by reading absorbance at 544 nm. Error bars: SD.
In order to further test the ability of NAD^+ agonists to reduce lipodystrophy associated with antiretroviral agents, 3T3-L1 adipocytes were treated for 24 hr with various antiretroviral compounds (30 μM) in the presence or absence of NMN (1 mM) or apigenin (25 μM). Intracellular lipid content was assessed using oil red o staining, which was quantified by reading absorbance at 544 nm.

Assay [8] in a line: Body weight after doxorubicin. It counts as in vivo, male C57BL6 mice. The note with it: doxorubicin 10 mg/kg i.p. + apigenin 500 mg/kg of diet from 8 days before. The method, then:
Vehicle control: 10% DMSO in PBS administered intraperitoneally; • 2. Apigenin: administered in diet at 500 mg/kg of diet, in addition to vehicle control administered i.p.; • 3. […] Apigenin administered in diet of 500 mg/kg of diet, and doxorubicin administered at 10 mg/kg body weight i.p. Apigenin was administered 8 days prior to administration of a single dose of doxorubicin. Body weight was assessed during the course of the experiment as a read-out of general health and malaise, the results of which are shown in FIG. 11.

The subject of assay [9] is senescence associated β-galactosidase. As to the kind of experiment: Senescence associated β-galactosidase staining of epididymal adipose tissue whole mounts. It counts as in vivo, C57BL6 mice. The method, then:
18 month old C57BL6 mice were treated with or without […] intraperitoneal apigenin for 7 days. Epidydimal adipose tissue whole mounts were obtained from the mice and stained for expression of senescence associated β-galactosidase according to the chromogenic protocol of Debacq-Chainiaux F et al., Protocols to Detect Senescence-associated beta-galactosidase (SA-betagal) activity, a biomarker of senescent cells in culture and in vivo, Nature Protocols 2009; 4(12): 1798-1806. Cells that have undergone cellular senescence express β-galactosidase and stain blue (which can be seen as a darker grey in FIG. 1A).

Assay [10] relates to p16^INK4A. Nature of the assay: Doxorubicin-induced senescence in p16^LUC mice, bioluminescence/CT imaging. It counts as in vivo. The conditions noted are these: doxorubicin 1 mg/kg i.p. + apigenin 500 mg/kg of food from 4 days before; vs doxorubicin alone. The method, then: Vehicle control: 10% DMSO in PBS administered intraperitoneally; • 2. Apigenin: administered in diet at 500 mg/kg of food in addition to vehicle control administered i.p.; • 3. […] Apigenin administered in chow diet at 500 mg/kg of food, and doxorubicin administered at 1 mg/kg body weight i.p. Apigenin was administered 4 days prior to administration of doxorubicin. The animals were subjected to bioluminescence/CT imaging (Spectrum-CT instrument, PerkinElmer) as a readout for senescence 24 hours after treatment was completed. Areas of luminescence are shown as lightened areas in FIG. 5 and are indicated by an arrow.

For assay [11], the target named is NAMPT (Homo sapiens, UniProt P43490). The conditions noted are these: in vitro; Wang et al. (2014) Cell; cited from earlier work.

“Also recorded” adds a separate entry of the source.

NAMPT, sequence (P43490 whole entry, species assumed): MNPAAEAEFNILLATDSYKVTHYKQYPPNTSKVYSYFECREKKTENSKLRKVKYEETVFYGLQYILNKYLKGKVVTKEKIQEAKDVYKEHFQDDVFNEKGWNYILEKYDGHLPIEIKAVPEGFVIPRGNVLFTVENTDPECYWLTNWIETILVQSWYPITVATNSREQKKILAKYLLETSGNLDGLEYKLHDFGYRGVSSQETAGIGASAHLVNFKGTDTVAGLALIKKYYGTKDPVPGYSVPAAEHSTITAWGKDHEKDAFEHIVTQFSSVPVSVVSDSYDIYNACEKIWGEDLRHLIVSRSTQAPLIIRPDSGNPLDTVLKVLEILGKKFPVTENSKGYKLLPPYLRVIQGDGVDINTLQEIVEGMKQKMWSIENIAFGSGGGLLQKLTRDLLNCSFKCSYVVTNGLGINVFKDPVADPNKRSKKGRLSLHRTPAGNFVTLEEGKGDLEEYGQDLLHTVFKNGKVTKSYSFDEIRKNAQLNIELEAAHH

For the molecule `O=c1cc(-c2ccc(O)cc2)oc2cc(O)cc(O)c12` [apigenin, 5,7-dihydroxy-2-(4-hydroxyphenyl)-4H-1-benzopyran-4-one], in assay [1] (6 months), the “mRNA expression of senescence associated secretory proteins (FIG. 2)” value is on record as “significant reduction in expression of senescence markers”. The “mRNA expression of cell cycle markers (FIG. 3)” value in assay [1] (12 months) is recorded as “significant reduction in expression of senescence markers”. Further, the “SA-β-Gal activity (FIG. 7B)” value in assay [2] (72 hours, dexamethasone sodium phosphate 250 nM or PBS, NMN 1 mM or apigenin 25 uM) is listed as “decreased”. The “SA-β-Gal activity (FIG. 7C)” value in assay [2] (96 hours, dexamethasone sodium phosphate 250 nM or PBS, NMN 1 mM or apigenin 25 uM) is reported as “decreased”. Moreover, the “percentage of cells which exhibited SA-β-Gal activity following treatment with dexamethasone” value in assay [2] (summary of FIGS. 7A-7C) was “reduced the percentage of cells which exhibited SA-β-Gal activity”. Also, in assay [3], the “inhibition of CD38 activity” value is “inhibitors of CD38 activity in vitro”. Besides, the “body weight after irradiation” value in assay [4] is “prevented this weight loss”. Further, the “extent of senescence (proportion of cells stained blue, SA-β-Gal activity)” value in assay [5] (agents of the table of b212 with vs without apigenin or NMN) is “reduce the extent of senescence induced by the agents tested”. Moreover, the “extent to which the cells undergo senescence” value in assay [5] (co-administration with AZT, 3TC, zalcitabine, efavirenze, lopinavir, ritonavir, nevirapine, tipranavir, tenofovir, invirase vs agent alone) is listed as “reduces the extent to which the cells undergo senescence”; in assay [5] (co-administration with PPARγ agonist rosiglitazone vs rosiglitazone alone) it was “reduces the extent to which the cells undergo senescence”; in assay [5] (co-administration with antiprotozoal agent quinacrine vs quinacrine alone) it was “reduces the extent to which the cells undergo senescence”; in [5] (co-administration with each of the chemotherapeutic agents listed in b109 vs agent alone) it was “reduces the extent to which the cells undergo senescence”; in assay [5] (co-administration with xanthine oxidase inhibitor allopurinol vs allopurinol alone), “reduces the extent to which the cells undergo senescence”; in assay [5] (co-administration with zolendronate vs zolendronate alone) it was “reduces the extent to which the cells undergo senescence”. The “SA-β-gal staining (blue cells), dexamethasone induced senescence” value in [6] is “reduce or prevent senescence induced by dexamethasone”. For the same molecule, the “lipodystrophy (intracellular lipid content, oil red o)” value in assay [7] was “reduced lipodystrophy”. In addition, the body weight result in assay [8] is listed as “rescue in body weight to a degree similar to non-doxorubicin treated animals”. The “SA-β-gal staining of adipose tissue (FIG. 1B)” value in assay [9] (3 and 18 month old mice fed chow or chow supplemented with apigenin) is “little or no staining”. For the same molecule, the “senescence associated β-galactosidase staining of adipose tissue (FIG. 1A)” value in assay [9] (18 month old mice, 100 mg/day intraperitoneal apigenin for 7 days / chow supplemented daily with 100 mg/kg apigenin, vs chow fed control, 100 mg/kg) is given as “less compared to chow fed mice; also recorded: significantly less senescence-associated β-galactosidase expression”. For the same molecule, the “p16^INK4A induction (bioluminescence)” value in [10] is “little or no signs of p16^INK4A induction”.

For the molecule `OC(CNc1ccccc1)Cn1c2ccc(Br)cc2c2cc(Br)ccc21` (stereo not drawn) [P7C3], the “activity of NAMPT” value in assay [11] was “enhances activity of NAMPT in vitro”.
